The numbers were not newly measured in patent US7223414B1, “Silica-calcium phosphate bioactive composite for improved synthetic graft resorbability and tissue regeneration” (priority 2002, dated 2007), which cites them from elsewhere.

The data set deals with Staphylococcus aureus.

Where a name gives a salt, the structure may show the parent alone.

Consider `CN[C@H](CC(C)C)C(=O)N[C@H]1C(=O)N[C@@H](CC(N)=O)C(=O)N[C@H]2C(=O)N[C@H]3C(=O)N[C@H](C(=O)N[C@H](C(=O)O)c4cc(O)cc(O)c4-c4cc3ccc4O)[C@H](O)c3ccc(c(Cl)c3)Oc3cc2cc(c3O[C@@H]2O[C@H](CO)[C@@H](O)[C@H](O)[C@H]2O[C@H]2C[C@](C)(N)[C@H](O)[C@H](C)O2)Oc2ccc(cc2Cl)[C@H]1O` [vancomycin hydrochloride, Vancomycin hydrochloride], for which the breakpoint sensitivity is 5 mg/L, the minimum bactericidal concentrations was 2.34 µg/mL and the minimum inhibitory concentration is 1.18 µg/mL.
